{"source": "patent US20230203025A1", "about": "“ENHANCERS OF PARTICULATE GUANYLYL CYCLASE RECEPTOR A” (Mayo Foundation for Medical Education and Research, priority 2020, published 2023)", "key": {"plasma stability, mouse": {"assay": "plasma stability, mouse", "type": "in vitro ADME"}, "[1]": {"assay": "hepatic microsomal stability, human", "type": "in vitro ADME"}, "[2]": {"tested_on": "primary human cardiomyocytes (HCMs)", "assay": "inhibition of TGF-beta 1 induced human cardiomyocyte hypertrophy", "type": "cell-based", "settings": "TGF-β1 5 ng/mL", "procedure": "Methods (Inhibition of Human Cardiac Hypertrophy In Vitro): primary human cardiomyocytes (HCMs) were grown in growth media to 50% confluence and then were subjected to serum starvation for 24 hrs. After that, 5 ng/mL of the cytokine TGFβ-1 (R&D Systems) was added to the media for 48 hrs to induce HCM hypertrophy. […] Normal cell buffer served as a vehicle only control, where TGFP-1 alone served as the positive control. Analysis for cell surface area (μm^2) was performed using the ImageJ software at the end of the study.\nResults: to further support the cGMP generation in human primary cells leads to favorable biological GC-A mediated, the anti-hypertrophic effects were assessed of Compound 19 on live HCMs stressed with TGF-β1 (5 ng/mL), using a state-of-the-art live cell imaging platform (IncuCyte System)."}, "human GC-A": {"molecular_target": "T1, human GC-A (Homo sapiens, UniProt P16066)", "T1 construct": "expressed in transfected cells; host or cells: HEK293", "T1 sequence (P16066 33-1061)": "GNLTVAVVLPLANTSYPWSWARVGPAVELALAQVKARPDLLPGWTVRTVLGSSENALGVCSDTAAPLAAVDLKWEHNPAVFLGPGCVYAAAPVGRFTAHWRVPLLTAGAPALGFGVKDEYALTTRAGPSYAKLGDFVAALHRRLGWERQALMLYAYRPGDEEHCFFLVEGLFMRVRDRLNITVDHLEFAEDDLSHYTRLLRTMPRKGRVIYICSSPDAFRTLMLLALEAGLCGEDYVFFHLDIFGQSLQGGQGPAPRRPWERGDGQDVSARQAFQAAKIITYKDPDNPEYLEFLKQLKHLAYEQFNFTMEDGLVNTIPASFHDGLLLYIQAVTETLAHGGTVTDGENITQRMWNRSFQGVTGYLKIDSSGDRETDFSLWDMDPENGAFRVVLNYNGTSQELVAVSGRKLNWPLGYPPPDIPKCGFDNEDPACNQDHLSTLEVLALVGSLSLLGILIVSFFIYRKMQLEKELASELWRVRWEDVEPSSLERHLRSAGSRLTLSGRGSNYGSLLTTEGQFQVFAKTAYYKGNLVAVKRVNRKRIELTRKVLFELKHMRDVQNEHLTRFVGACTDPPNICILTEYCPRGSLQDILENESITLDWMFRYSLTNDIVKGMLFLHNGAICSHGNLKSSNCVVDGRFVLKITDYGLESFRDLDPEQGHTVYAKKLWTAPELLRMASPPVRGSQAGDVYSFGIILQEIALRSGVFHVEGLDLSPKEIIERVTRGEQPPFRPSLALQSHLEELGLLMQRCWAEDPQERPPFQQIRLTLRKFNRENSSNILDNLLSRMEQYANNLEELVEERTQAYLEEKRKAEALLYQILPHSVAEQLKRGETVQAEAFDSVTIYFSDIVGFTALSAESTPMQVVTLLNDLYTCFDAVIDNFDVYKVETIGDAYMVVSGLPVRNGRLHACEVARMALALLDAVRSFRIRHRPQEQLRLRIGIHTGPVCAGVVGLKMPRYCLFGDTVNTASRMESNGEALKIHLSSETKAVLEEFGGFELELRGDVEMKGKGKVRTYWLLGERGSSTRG", "T1 sequence (P01160 124-151 partner limits assumed)": "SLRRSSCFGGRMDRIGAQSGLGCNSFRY", "assay": "ex vivo cGMP generation in HEK293 GC-A cells incubated with human plasma", "type": "cell-based", "procedure": "Methods: Stored human plasma samples from normal subjects and patients with hypertension and HF were utilized. The details of the recruitment of these participants are previously reported. All participants gave written informed consent and the Institutional Review Board (IRB) at Mayo Clinic approved this study. […] HEK293 overexpressing human GC-A were cultured and grown as described above. Cells were grown in 48-well plates to 80-90% confluence. On the day of the experiment, cells were pre-incubated with Compound 19 at doses of 1, 5 or 10 μM and without (Veh) in 250 μL treatment buffer for 5 min at 37° C. 25 μL of human plasma was then added and incubated for additional 10 min. After, cells were washed with PBS once, lysed with 0.1M HCl and intracellular cGMP levels were measured in the lysate using a commercial cGMP ELISA kit (Enzo Life Sciences, Farmingdale, N.Y.) as instructed by the manufacturer."}}}
{"smiles": "CN(C)CCN1CCCC(C(=O)Nc2nc3c(F)cc(F)cc3s2)C1", "note": "(stereo not drawn) [Compound 19]", "values": [{"measurement": "Plasma Stability (% remaining at 1 h)", "setting": "plasma stability, mouse", "result": 109.7, "unit": "%"}, {"measurement": "Hepatic Microsomal Stability (% remaining at 1 h)", "setting": "[1]", "result": 98.2, "unit": "%"}, {"measurement": "inhibition of HCM hypertrophy", "setting": "[2]; Compound 19 (1, 5, 10 μM) with ANP 10^−8 M", "result": "significant inhibition"}, {"measurement": "inhibition of HCM hypertrophy", "setting": "[2]; Compound 19 (1, 5, 10 μM) with ANP 10^−10 M", "result": "significant inhibition"}, {"measurement": "generation of cGMP levels in HEK293 GC-A cells", "setting": "human GC-A; 1, 5 or 10 μM with human plasma from normal, hypertension and HF cohorts", "result": "potentiated the generation of cGMP levels"}, {"measurement": "cGMP potency by plasma cohort", "setting": "human GC-A; HF plasma, highest circulating ANP and BNP", "result": "greatest cGMP potency"}]}
